Measurements published in the NIST ThermoML archive (doi:10.1021/je301095j).

Assay: xn = mol fraction of the nth substance listed
Details: 101 kPa, Liquid; for kinematic viscosity: Capillary tube (Ostwald / Ubbelohde) method; for mass density: Vibrating tube method

COCCOC [1,2-dimethoxyethane] + CCO
Details | kinematic viscosity [m2/s] | mass density [kg/m3]
283.15 K, x1 = 0.05379 | 1.552e-06 | 805.91
283.15 K, x1 = 0.09719 | 1.381e-06 | 811.83
283.15 K, x1 = 0.2113 | 1.08e-06 | 825.56
283.15 K, x1 = 0.2968 | 9.35e-07 | 834.32
283.15 K, x1 = 0.4056 | 8.09e-07 | 843.94
283.15 K, x1 = 0.4865 | 7.45e-07 | 850.18
283.15 K, x1 = 0.5971 | 6.82e-07 | 857.71
283.15 K, x1 = 0.6948 | 6.38e-07 | 863.49
283.15 K, x1 = 0.8257 | 5.98e-07 | 870.24
283.15 K, x1 = 0.8749 | 5.83e-07 | 872.52
283.15 K, x1 = 0.9456 | 5.71e-07 | 875.57
293.15 K, x1 = 0.05746 | 1.304e-06 | 797.66
293.15 K, x1 = 0.09986 | 1.17e-06 | 803.22
293.15 K, x1 = 0.1453 | 1.07e-06 | 808.77
293.15 K, x1 = 0.2138 | 9.37e-07 | 816.42
293.15 K, x1 = 0.2947 | 8.24e-07 | 824.42
293.15 K, x1 = 0.399 | 7.25e-07 | 833.43
293.15 K, x1 = 0.4877 | 6.64e-07 | 840.1
293.15 K, x1 = 0.5965 | 6.09e-07 | 847.24
293.15 K, x1 = 0.6885 | 5.75e-07 | 852.56
293.15 K, x1 = 0.8249 | 5.39e-07 | 859.38
293.15 K, x1 = 0.8772 | 5.26e-07 | 861.72
293.15 K, x1 = 0.9542 | 5.13e-07 | 864.93
303.15 K, x1 = 0.04309 | 1.14e-06 | 786.92
303.15 K, x1 = 0.1038 | 9.89e-07 | 794.71
303.15 K, x1 = 0.2082 | 8.13e-07 | 806.41
303.15 K, x1 = 0.2955 | 7.17e-07 | 814.8
303.15 K, x1 = 0.3926 | 6.39e-07 | 822.94
303.15 K, x1 = 0.497 | 5.82e-07 | 830.54
303.15 K, x1 = 0.5918 | 5.43e-07 | 836.55
303.15 K, x1 = 0.6991 | 5.1e-07 | 842.5
303.15 K, x1 = 0.8103 | 4.86e-07 | 847.89
303.15 K, x1 = 0.8876 | 4.73e-07 | 851.26
303.15 K, x1 = 0.9199 | 4.68e-07 | 852.57
313.15 K, x1 = 0.04639 | 9.59e-07 | 778.57
313.15 K, x1 = 0.1049 | 8.49e-07 | 785.84
313.15 K, x1 = 0.211 | 7.05e-07 | 797.27
313.15 K, x1 = 0.2977 | 6.27e-07 | 805.28
313.15 K, x1 = 0.3787 | 5.75e-07 | 811.92
313.15 K, x1 = 0.4959 | 5.21e-07 | 820.25
313.15 K, x1 = 0.6512 | 4.7e-07 | 829.41
313.15 K, x1 = 0.6979 | 4.62e-07 | 831.83
313.15 K, x1 = 0.8168 | 4.39e-07 | 837.35
313.15 K, x1 = 0.8803 | 4.32e-07 | 840.03
313.15 K, x1 = 0.9384 | 4.23e-07 | 842.37

COCCOC [1,2-dimethoxyethane] + CCCCCO
Details | kinematic viscosity [m2/s] | mass density [kg/m3]
283.15 K, x1 = 0.04484 | 5.31e-06 | 824.28
283.15 K, x1 = 0.07064 | – | 825.63
283.15 K, x1 = 0.1021 | 4.09e-06 | 827.27
283.15 K, x1 = 0.2104 | 2.73e-06 | 833.01
283.15 K, x1 = 0.3077 | 2.01e-06 | 838.24
283.15 K, x1 = 0.4078 | 1.54e-06 | 843.7
283.15 K, x1 = 0.4902 | 1.27e-06 | 848.25
283.15 K, x1 = 0.5751 | – | 853
283.15 K, x1 = 0.712 | 8.27e-07 | 860.78
283.15 K, x1 = 0.7978 | 7.25e-07 | 865.75
283.15 K, x1 = 0.8137 | – | 866.69
283.15 K, x1 = 0.8957 | 6.35e-07 | 871.5
283.15 K, x1 = 0.9347 | – | 873.81
283.15 K, x1 = 0.9473 | 5.96e-07 | 874.57
293.15 K, x1 = 0.04837 | 3.98e-06 | 816.95
293.15 K, x1 = 0.07064 | – | 818.04
293.15 K, x1 = 0.09244 | 3.32e-06 | 819.11
293.15 K, x1 = 0.1962 | – | 824.24
293.15 K, x1 = 0.2048 | 2.24e-06 | 824.66
293.15 K, x1 = 0.3078 | 1.65e-06 | 829.83
293.15 K, x1 = 0.408 | 1.28e-06 | 834.94
293.15 K, x1 = 0.497 | 1.05e-06 | 839.55
293.15 K, x1 = 0.595 | 8.65e-07 | 844.67
293.15 K, x1 = 0.6985 | 7.25e-07 | 850.18
293.15 K, x1 = 0.7088 | – | 850.73
293.15 K, x1 = 0.7978 | 6.17e-07 | 855.54
293.15 K, x1 = 0.8137 | – | 856.41
293.15 K, x1 = 0.896 | 5.4e-07 | 860.92
293.15 K, x1 = 0.9071 | – | 861.54
293.15 K, x1 = 0.9541 | 5.01e-07 | 864.14
303.15 K, x1 = 0.04441 | 3.14e-06 | 809.26
303.15 K, x1 = 0.1118 | 2.45e-06 | 812.32
303.15 K, x1 = 0.1947 | 1.89e-06 | 816.15
303.15 K, x1 = 0.3088 | 1.39e-06 | 821.48
303.15 K, x1 = 0.4056 | 1.11e-06 | 826.06
303.15 K, x1 = 0.4948 | 9.29e-07 | 830.35
303.15 K, x1 = 0.6215 | – | 836.52
303.15 K, x1 = 0.7076 | 6.5e-07 | 840.79
303.15 K, x1 = 0.8038 | 5.69e-07 | 845.62
303.15 K, x1 = 0.8519 | – | 848.06
303.15 K, x1 = 0.8998 | 5.08e-07 | 850.52
303.15 K, x1 = 0.9524 | 4.8e-07 | 853.23
313.15 K, x1 = 0.06014 | 2.34e-06 | 802.42
313.15 K, x1 = 0.0969 | 2.08e-06 | 803.97
313.15 K, x1 = 0.1159 | – | 804.76
313.15 K, x1 = 0.2221 | – | 809.31
313.15 K, x1 = 0.3249 | 1.13e-06 | 813.76
313.15 K, x1 = 0.4049 | 9.58e-07 | 817.27
313.15 K, x1 = 0.4955 | 8.09e-07 | 821.28
313.15 K, x1 = 0.599 | 6.82e-07 | 825.94
313.15 K, x1 = 0.7001 | 5.86e-07 | 830.56
313.15 K, x1 = 0.801 | 5.16e-07 | 835.25
313.15 K, x1 = 0.9031 | 4.59e-07 | 840.05
313.15 K, x1 = 0.9604 | 4.34e-07 | 842.78

COCCOC [1,2-dimethoxyethane] + CCCCCCCCO
Details | kinematic viscosity [m2/s] | mass density [kg/m3]
283.15 K, x1 = 0.06697 | 1.152e-05 | 833.91
283.15 K, x1 = 0.1224 | 8.912e-06 | 835.41
283.15 K, x1 = 0.2171 | 5.951e-06 | 838.23
283.15 K, x1 = 0.3108 | 4.177e-06 | 841.31
283.15 K, x1 = 0.4036 | 3.014e-06 | 844.65
283.15 K, x1 = 0.5046 | 2.16e-06 | 848.72
283.15 K, x1 = 0.593 | 1.65e-06 | 852.66
283.15 K, x1 = 0.6949 | 1.225e-06 | 857.74
283.15 K, x1 = 0.7907 | 9.43e-07 | 863.1
283.15 K, x1 = 0.8983 | 7.18e-07 | 870.05
283.15 K, x1 = 0.9329 | 6.62e-07 | 872.53
293.15 K, x1 = 0.06547 | 8.238e-06 | 826.71
293.15 K, x1 = 0.1085 | 6.898e-06 | 827.8
293.15 K, x1 = 0.208 | 4.672e-06 | 830.48
293.15 K, x1 = 0.3098 | 3.277e-06 | 833.51
293.15 K, x1 = 0.4069 | 2.39e-06 | 836.71
293.15 K, x1 = 0.5036 | 1.79e-06 | 840.25
293.15 K, x1 = 0.5981 | 1.37e-06 | 844.1
293.15 K, x1 = 0.6905 | 1.07e-06 | 848.29
293.15 K, x1 = 0.7963 | 8.12e-07 | 853.72
293.15 K, x1 = 0.896 | 6.42e-07 | 859.6
293.15 K, x1 = 0.9434 | 5.8e-07 | 862.69
303.15 K, x1 = 0.05281 | 6.333e-06 | 819.29
303.15 K, x1 = 0.2029 | 3.707e-06 | 822.86
303.15 K, x1 = 0.2197 | 3.499e-06 | 823.3
303.15 K, x1 = 0.299 | 2.72e-06 | 825.44
303.15 K, x1 = 0.3826 | 2.122e-06 | 827.89
303.15 K, x1 = 0.4984 | 1.531e-06 | 831.64
303.15 K, x1 = 0.6107 | 1.14e-06 | 835.78
303.15 K, x1 = 0.6969 | 9.2e-07 | 839.34
303.15 K, x1 = 0.8038 | 7.15e-07 | 844.34
303.15 K, x1 = 0.892 | 5.86e-07 | 849.04
303.15 K, x1 = 0.935 | 5.35e-07 | 851.56
313.15 K, x1 = 0.05472 | 4.688e-06 | 812.24
313.15 K, x1 = 0.1071 | 3.922e-06 | 813.31
313.15 K, x1 = 0.2145 | 2.8e-06 | 815.67
313.15 K, x1 = 0.2882 | 2.251e-06 | 817.43
313.15 K, x1 = 0.4028 | 1.643e-06 | 820.44
313.15 K, x1 = 0.5028 | 1.27e-06 | 823.38
313.15 K, x1 = 0.5955 | 1.008e-06 | 826.4
313.15 K, x1 = 0.6897 | 8.07e-07 | 829.8
313.15 K, x1 = 0.7898 | 6.45e-07 | 833.92
313.15 K, x1 = 0.8945 | 5.16e-07 | 838.85
313.15 K, x1 = 0.9681 | 4.44e-07 | 842.83
